Like-named read-outs stand apart in the source and are kept apart here. Ends that are not written are not given here.
Biological target: HLA-A*02:01 molecule (UniProt P01899+P04439, D140Y/D185E/D98H/E176V/G131W/I119V/I121R/I166T/N151K/N90K/Q86G/Q94H/R138H/R169H)
Assay: cell-based
Type: binding, human

Row | Sequence | EC50 (SD) | EC50
1 | AIFYLITPV [pp1a-2785] | 5.1 ± 1.6 µM | 
2 | ALLSDLQDL [pp1a-4183] | 42.4 ± 6.1 µM | 
3 | ALNLGETFV [pp1a-702] | 40.7 ± 2.8 µM | 
4 | CLHVVGPNV [pp1a-1114] | 62.9 ± 2.3 µM | 
5 | CLLNRYFRL [pp1a-3798] | 81.6 ± 20.2 µM | 
6 | FITESKPSV [pp1a-1214] | 122 ± 31.7 µM | 
7 | FLAHIQWMV [pp1a-3122] | 6.9 ± 0.4 µM | 
8 | FLALCADSI [pp1a-685] | 10.2 ± 0.5 µM | 
9 | FLARGIVFM [pp1a-3753] | 71.2 ± 12.9 µM | 
10 | FLGRYMSAL [pp1a-1642] | 124 ± 1.9 µM | 
11 | FLLNKEMYL [pp1a-3183] | 12.9 ± 6.8 µM | 
12 | FLNGSCGSV [pp1a-3403] | 18.7 ± 3.2 µM | 
13 | FLRDGWEIV [pp1a-641] | 0.9 ± 0.1 µM | 
14 | GILFGVFTL [FMP58-66, reference compound] |  | 2.3 µM
15 | GLNDNLLEI [pp1a-445] | 6 ± 0.2 µM | 
16 | GLVEVEKGV [pp1a-52] | 14.5 ± 4.9 µM | 
17 | IIWFLLLSV [pp1a-2230] | 177 ± 6.3 µM | 
18 | ILFTRFFYV [pp1a-2332] | 96.5 ± 14 µM | 
19 | ILGTVSWNL [pp1a-1367] | 123 ± 11.3 µM | 
20 | ILLLDQALV [pp1a-2569] | 9.6 ± 1.5 µM | 
21 | ILTSLLVLV [pp1a-3587] | 8.3 ± 0.9 µM | 
22 | IVAGGIVAI [pp1a-3047] | 50.5 ± 2.5 µM | 

Row | Sequence | EC50 (SD) | EC50
23 | KLIEYTDFA [pp1a-2901] | 126 ± 2.5 µM | 
24 | KLMPVCVET [pp1a-1387] | 174 ± 33.5 µM | 
25 | KLNEEIAII [pp1a-468] | 56.2 ± 4.8 µM | 
26 | KLWAQCVQL [pp1a-3886] | 27.2 ± 9.4 µM | 
27 | KTLQPVSEL [pp1a-881] | 162 ± 28.3 µM | 
28 | LLFLMSFTV [pp1a-3083] | 39.4 ± 0.9 µM | 
29 | LLLTILTSL [pp1a-3583] | 63.8 ± 3.1 µM | 
30 | LMWLIINLV [pp1a-2364] | 159 ± 42.8 µM | 
31 | MLAKALRKV [pp1a-1312] | 95.2 ± 0.7 µM | 
32 | MLFTMLRKL [pp1a-4032] | 166 ± 21.7 µM | 
33 | NLAKHCLHV [pp1a-1109] | 38.5 ± 8.2 µM | 
34 | QLFFSYFAV [pp1a-2348] | 146 ± 19.7 µM | 
35 | QLMCQPILL [pp1a-2563] | 11.1 ± 1.8 µM | 
36 | QLSLPVLQV [pp1a-15] | 79.4 ± 4.4 µM | 
37 | RIMTWLDMV [pp1a-3662] | 76.5 ± 7.1 µM | 
38 | SLINTLNDL [pp1a-1433] | 123 ± 11 µM | 
39 | SLIYSTAAL [pp1a-2242] | 134 ± 7.6 µM | 
40 | SLPGVFCGV [pp1a-3013] | 3.1 ± 0.2 µM | 
41 | SLRVCVDTV [pp1a-1161] | 85.7 ± 1.9 µM | 
42 | SMQNCVLKL [pp1a-3344] | 105 ± 2.2 µM | 
43 | SMWALIISV [pp1a-3732] | 8.9 ± 0.4 µM | 
44 | TLGVLVPHV [pp1a-103] | 1.3 ± 0.2 µM | 

Row | Sequence | EC50 (SD) | EC50
45 | TLGVYDYLV [pp1a-3807] | 61.7 ± 8.7 µM | 
46 | TLMNVLTLV [pp1a-3710] | 2 ± 0.4 µM | 
47 | TLSEQLDFI [pp1a-214] | 2 ± 0.2 µM | 
48 | TVYEKLKPV [pp1a-619] | 5.6 ± 0.7 µM | 
49 | VINGDRWFL [pp1a-3475] | 85 ± 5.4 µM | 
50 | VLLSMQGAV [pp1a-3917] | 112 ± 7.2 µM | 
51 | VLLSVLQQL [pp1a-3871] | 44.9 ± 6 µM | 
52 | VLSEARQHL [pp1a-38] | 76.8 ± 6.8 µM | 
53 | VLVPHVGEI [pp1a-106] | 76 ± 2 µM | 
54 | VMAYITGGV [pp1a-597] | 9.5 ± 0.9 µM | 
55 | VMVELVAEL [pp1a-84] | 6.8 ± 0.3 µM | 
56 | WLMWLIINL [pp1a-2363] | 103 ± 6.4 µM | 
57 | WMVMFTPLV [pp1a-3128] | 9.8 ± 1.1 µM | 
58 | YITGGVVQL [pp1a-600] | 48.5 ± 7.9 µM | 
59 | YLASGGQPI [pp1a-4283] | 39.8 ± 6.2 µM | 
60 | YLATALLTL [pp1a-1675] | 8.4 ± 0.2 µM | 
61 | YLEGSVRVV [pp1a-2968] | 7.5 ± 0.1 µM | 
62 | YLNSTNVTI [pp1a-2270] | 8.9 ± 0.3 µM | 
63 | YLTNDVSFL [pp1a-3115] | 4.8 ± 0.3 µM | 
64 | YMPYFFTLL [pp1a-2168] | 99 ± 2.4 µM | 
